Test results from ChEMBL document CHEMBL1151025, “Synthesis and influenza neuraminidase inhibitory activity of aromatic analogues of sialic acid” (Bioorg Med Chem Lett, 1995).

How the values were obtained:
[1] = Compound was tested for Inhibition of influenza A [influenza A/Shandong/09/93 (H3N2)] neuraminidase; design: species or system Influenza A virus
[2] = test system: MDCK; assay: Inhibitory activity against Influenza virus in MDCK cells; type: functional, cell-based; conditions: Canis lupus familiaris

SMILES | IC50 [1] [nM] | Ki [1] [nM] | EC50 [2] [nM]
CC(=O)Nc1c(NC(=N)N)cc(C(=O)O)cc1[C@H](O)[C@H](O)CO | > 100000 | > 100000 | 
CC(=O)N[C@H]1[C@H]([C@H](O)[C@H](O)CO)OC(C(=O)O)=C[C@@H]1NC(=N)N [ZANAMIVIR] | 5 | 1 | 40
